Tests used:
caspase-3 = molecular target: T1, caspase-3 (Homo sapiens, UniProt P42574); experiment: AMC-M808 cleavage in DLD1 colon carcinoma cells after TRAIL treatment, time-lapse confocal fluorescence; type: cell-based
T1 construct: In DLD1 colon carcinoma cells in vitro; endogenous in cells; host or cells: DLD1 colon carcinoma cells
T1 sequence (P42574 29-175 limits assumed): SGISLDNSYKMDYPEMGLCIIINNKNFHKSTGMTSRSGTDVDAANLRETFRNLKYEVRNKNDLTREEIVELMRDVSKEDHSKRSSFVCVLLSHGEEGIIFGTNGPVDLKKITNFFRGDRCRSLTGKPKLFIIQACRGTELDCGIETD
T1 sequence (P42574 176-277 limits assumed): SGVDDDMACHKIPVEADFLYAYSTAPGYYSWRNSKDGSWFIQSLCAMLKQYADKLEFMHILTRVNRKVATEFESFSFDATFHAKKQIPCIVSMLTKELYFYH
Method: FIG. 1 is an image of AMC fluorescence from an imaging agent in DLD1 colon carcinoma cells before (A) and after 2 hour treatment with TNF-related apoptosis-inducing ligand (TRAIL) (B).
DLD1 cells were seeded in an 8-chamber glass slide at a density of 2×10^4 cells/cm^2 in DMEM containing 10% FBS and allowed to attach overnight. Fluorescent images of the plated cells were acquired using an Olympus FV1000 confocal microscope equipped with an onstage incubation chamber. TRAIL was added to the cells in a 0.5 mL volume of fresh medium at a concentration of 50 ng/mL. Time-lapse microscopy was then immediately initiated with confocal images acquired at a rate of one image every 10 minutes. The cells were maintained at 37° C. in 5% CO2 for the duration of the experiment. An excitation wavelength of 405 nm and an emission wavelength range of 425 to 475 nm were used to detect the cleaved product of AMC-M808. Fluorescence intensity over time was measured in a representative region-of-interest in each 10-minute image acquired to determine the rate of caspase activity.

caspases = conditions: cell cultures containing 23% apoptotic cells; cited from earlier work

Row | cleavage by caspase-3 after induction of apoptosis (caspase-3; DLD1 cells treated with TRAIL) | rate of increase in fluorescence intensity due to AMC-M808 cleavage (caspase-3; DLD1 cells, after TRAIL 50 ng/mL, first hour, region of interest in 10 minute frames) | cell permeability (caspase-3; DLD1 colon carcinoma cells in vitro) | Compound | uptake in cell cultures (caspases)
1 | cleaved by caspase-3 | 5.5 min⁻¹ | cell permeable | COc1ccccc1CC(=O)NC(C(=O)NC(CC(=O)OCc1ccccc1)C(=O)Nc1ccc2c(C)cc(=O)oc2c1)C(C)C (stereo not shown) [Compound 3] | –
2 | – | – | – | radioiodinated Z-Val-Ala-DL-Asp(O-methyl)-fluoromethyl ketone [[^131I]IZ-VAD-fmk] | some increase in uptake

From patent US20090170131A1, “Agents for Imaging Apoptosis” (priority 2006, published 2009)
